In US12521440B2, “Degradation of bruton's tyrosine kinase (BTK) by conjugation of BTK inhibitors with E3 ligase ligand and methods of use” (BeOne Medicines I GmbH, priority 2021, dated 2026):
Counter-ions that a name gives are not always drawn.

Assays:
HEK-293 cells = assay: HEK-293 cytotoxicity detection (CellTiter-Glo); assay type: cell-based; details: Homo sapiens, 72 h incubation, read-out: HEK293
How it was run: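 Cytotoxicity IC50 derived by four-parameter curve fitting of percent inhibition of CellTiter-Glo luminescence. Compounds tested at 8 doses in 4-fold steps, 0.2% DMSO, on HEK-293 cells for 72 h.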

BTK = molecular target: T1, BTK (Homo sapiens, UniProt Q06187); assay: BTK degradation in TMD-8 cells (HTRF assay); assay type: cell-based; details: 6 h treatment, HTRF BTK degradation IC50 (DC50)
T1 construct: endogenous in cells; host or cells: TMD-8 cells
How it was run: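 BTK levels measured by HTRF (665/620 nm) in lysates of TMD-8 cells after 6 h compound treatment, with antibody incubation overnight at room temperature. Dosing covered 8 points, 6-fold dilutions from 1 mM 500× stocks, 0.2% DMSO final. Four-parameter curve fitting gave DC50.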

T1 sequence (Q06187 whole entry): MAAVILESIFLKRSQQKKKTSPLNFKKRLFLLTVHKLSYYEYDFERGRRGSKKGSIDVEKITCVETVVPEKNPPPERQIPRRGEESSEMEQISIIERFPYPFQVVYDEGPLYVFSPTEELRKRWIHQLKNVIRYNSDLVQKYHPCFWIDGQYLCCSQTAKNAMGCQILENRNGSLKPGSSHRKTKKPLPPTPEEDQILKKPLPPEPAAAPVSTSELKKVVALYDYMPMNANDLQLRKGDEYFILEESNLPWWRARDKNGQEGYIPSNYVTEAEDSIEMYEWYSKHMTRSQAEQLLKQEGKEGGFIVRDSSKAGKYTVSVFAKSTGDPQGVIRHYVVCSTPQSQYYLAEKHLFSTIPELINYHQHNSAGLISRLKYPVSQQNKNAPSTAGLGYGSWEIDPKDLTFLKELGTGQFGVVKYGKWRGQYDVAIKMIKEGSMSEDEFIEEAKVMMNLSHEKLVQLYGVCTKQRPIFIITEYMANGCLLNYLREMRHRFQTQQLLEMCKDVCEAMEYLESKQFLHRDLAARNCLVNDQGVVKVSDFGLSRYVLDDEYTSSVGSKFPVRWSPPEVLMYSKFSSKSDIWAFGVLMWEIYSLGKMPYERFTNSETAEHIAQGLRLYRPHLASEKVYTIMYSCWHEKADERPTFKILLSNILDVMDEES

Row | Compound | DC50 (BTK) [nM] | IC50 (HEK-293 cells) [nM]
1 | Cc1cc(-c2cc(Nc3ccc(N4CCN(C5CN(c6ccc(C7CCC(=O)NC7=O)cc6)C5)CC4)cn3)ncn2)ccc1[C@@H](C)NC(=O)c1nc(C(C)(C)C)no1 (stereo partly drawn) [Example 41, 3-(tert-butyl)-N-((1R)-1-(4-(6-((5-(4-(1-(4-(2,6-dioxopiperidin-3-yl)phenyl)azetidin-3-yl)piperazin-1-yl)pyridin-2-yl)amino)pyrimidin-4-yl)-2-methylphenyl)ethyl)-1,2,4-oxadiazole-5-carboxamide] | 2.47 | > 10000
2 | Cc1cc(-c2cc(Nc3ccc(N4CCN(C5CC6(CCN(c7ccc(N8CCC(=O)NC8=O)cc7)CC6)C5)CC4)cn3)ncn2)ccc1[C@@H](C)NC(=O)c1nc(C(C)(C)C)no1 [Example 43, (R)-3-(tert-butyl)-N-(1-(4-(6-((5-(4-(7-(4-(2,4-dioxotetrahydropyrimidin-1(2H)-yl)phenyl)-7-azaspiro[3.5]nonan-2-yl)piperazin-1-yl)pyridin-2-yl)amino)pyrimidin-4-yl)-2-methylphenyl)ethyl)-14-oxadiazole-5-carboxamide] | 2.99 | > 10000
3 | Cc1cc(-c2cc(Nc3ccc(N4CCN(C5CN(C6CN(c7ccc8c(c7)C(=O)N(C7CCC(=O)NC7=O)C8=O)C6)C5)CC4)cn3)ncn2)ccc1[C@@H](C)NC(=O)c1nc(C(C)(C)C)no1 (stereo partly drawn) [Example 44, 3-(tert-butyl)-N-((1R)-1-(4-(6-((5-(4-(1′-(2-(2,6-dioxopiperidin-3-yl)-1,3-dioxoisoindolin-5-yl)-[1,3′-biazetidin]-3-yl)piperazin-1-yl)pyridin-2-yl)amino)pyrimidin-4-yl)-2-methylphenyl)ethyl)-1,2,4-oxadiazole-5-carboxamide] | 1.63 | > 10000
4 | Cc1cc(-c2cc(Nc3ccc(N4CCN(CCc5cc(F)c(C6CCC(=O)NC6=O)c(F)c5)CC4)cn3)ncn2)ccc1[C@@H](C)NC(=O)c1nc(C(C)(C)C)no1 (stereo partly drawn) [Example 45, 3-(tert-butyl)-N-((1R)-1-(4-(6-((5-(4-(4-(2,6-dioxopiperidin-3-yl)-3,5-difluorophenethyl)piperazin-1-yl)pyridin-2-yl)amino)pyrimidin-4-yl)-2-methylphenyl)ethyl)-1,2,4-oxadiazole-5-carboxamide] | 1.75 | > 10000
5 | Cc1cc(-c2cc(Nc3ccc(N4CCN([C@H]5C[C@@H](c6ccc(N[C@@H]7CCC(=O)NC7=O)cc6)C5)CC4)cn3)ncn2)ccc1[C@@H](C)NC(=O)c1nc(C(C)(C)C)no1 [Example 52, 3-(tert-butyl)-N—((R)-1-(4-(6-((5-(4-((1S,3s)-3-(4-(((R)-2,6-dioxopiperidin-3-yl)amino)phenyl)cyclobutyl)piperazin-1-yl)pyridin-2-yl)amino)pyrimidin-4-yl)-2-methylphenyl)ethyl)-1,2,4-oxadiazole-5-carboxamide] | 3.04 | > 10000
6 | Cc1cc(-c2cc(Nc3ccc(N4CCN([C@H]5C[C@H](c6ccc(N[C@H]7CCC(=O)NC7=O)cc6)C5)CC4)cn3)ncn2)ccc1[C@@H](C)NC(=O)c1nc(C(C)(C)C)no1 [Example 53, 3-(tert-butyl)-N—((R)-1-(4-(6-((5-(4-((1S,3r)-3-(4-(((S)-2,6-dioxopiperidin-3-yl)amino)phenyl)cyclobutyl)piperazin-1-yl)pyridin-2-yl)amino)pyrimidin-4-yl)-2-methylphenyl)ethyl)-1,2,4-oxadiazole-5-carboxamide formate] | 1.91 | > 10000
7 | Cc1cc(-c2cc(Nc3ccc(N4CCN([C@H]5C[C@@H](c6ccc(N[C@H]7CCC(=O)NC7=O)cc6)C5)CC4)cn3)ncn2)ccc1[C@@H](C)NC(=O)c1nc(C(C)(C)C)no1 [Example 54, 3-(tert-butyl)-N—((R)-1-(4-(6-((5-(4-((1R,3s)-3-(4-(((S)-2,6-dioxopiperidin-3-yl)amino)phenyl)cyclobutyl)piperazin-1-yl)pyridin-2-yl)amino)pyrimidin-4-yl)-2-methylphenyl)ethyl)-1,2,4-oxadiazole-5-carboxamide] | 4.13 | > 10000
8 | Cc1cc(-c2cc(Nc3ccc(N4CCN([C@H]5C[C@H](c6ccc(N[C@@H]7CCC(=O)NC7=O)cc6)C5)CC4)cn3)ncn2)ccc1[C@@H](C)NC(=O)c1nc(C(C)(C)C)no1 [Example 55, 3-(tert-butyl)-N—((R)-1-(4-(6-((5-(4-((1R,3r)-3-(4-(((R)-2,6-dioxopiperidin-3-yl)amino)phenyl)cyclobutyl)piperazin-1-yl)pyridin-2-yl)amino)pyrimidin-4-yl)-2-methylphenyl)ethyl)-1,2,4-oxadiazole-5-carboxamide] | 2.08 | > 10000
9 | Cc1cc(-c2cc(Nc3ccc(N4CCN(C(=O)Cc5cccc(N6CCC(=O)NC6=O)c5)CC4)cn3)ncn2)ccc1[C@@H](C)NC(=O)c1nc(C(C)(C)C)no1 [Example 56, (R)-3-(tert-butyl)-N-(1-(4-(6-((5-(4-(2-(3-(2,4-dioxotetrahydropyrimidin-1(2H)-yl)phenyl)acetyl)piperazin-1-yl)pyridin-2-yl)amino)pyrimidin-4-yl)-2-methylphenyl)ethyl)-1,2,4-oxadiazole-5-carboxamide] | 9.9 | > 10000

The next compounds have a lower DC50 (BTK) than those just listed; values first:

Row | DC50 (BTK) [nM] | Compound | IC50 (HEK-293 cells) [nM]
10 | 1.44 | Cc1cc(CCN2CCN(c3ccc(Nc4cc(-c5ccc([C@@H](C)NC(=O)c6nc(C(C)(C)C)no6)c(C)c5)ncn4)nc3)CC2)ccc1C1CCC(=O)NC1=O (stereo partly drawn) [Example 48, 3-(tert-butyl)-N-((1R)-1-(4-(6-((5-(4-(4-(2,6-dioxopiperidin-3-yl)-3-methylphenethyl)piperazin-1-yl)pyridin-2-yl)amino)pyrimidin-4-yl)-2-methylphenyl)ethyl)-1,2,4-oxadiazole-5-carboxamide] | > 10000
11 | 1.35 | Cc1cc(-c2cc(Nc3ccc(N4CCN(CCc5cccc6c5oc(=O)n6C5CCC(=O)NC5=O)CC4)cn3)ncn2)ccc1[C@@H](C)NC(=O)c1nc(C(C)(C)C)no1 (stereo partly drawn) [Example 51, 3-(tert-butyl)-N-((1R)-1-(4-(6-((5-(4-(2-(3-(2,6-dioxopiperidin-3-yl)-2-oxo-2,3-dihydrobenzo[d]oxazol-7-yl)ethyl)piperazin-1-yl)pyridin-2-yl)amino)pyrimidin-4-yl)-2-methylphenyl)ethyl)-1,2,4-oxadiazole-5-carboxamide formate] | > 10000
12 | 1.2 | Cc1cc(-c2cc(Nc3ccc(N4CCN(C5CN(C6CN(c7ccc(C8CCC(=O)NC8=O)cc7)C6)C5)CC4)cn3)ncn2)ccc1[C@@H](C)NC(=O)c1nc(C(C)(C)C)no1 (stereo partly drawn) [Example 42, 3-(tert-butyl)-N-((1R)-1-(4-(6-((5-(4-(1′-(4-(2,6-dioxopiperidin-3-yl)phenyl)-[1,3′-biazetidin]-3-yl)piperazin-1-yl)pyridin-2-yl)amino)pyrimidin-4-yl)-2-methylphenyl)ethyl)-1,2,4-oxadiazole-5-carboxamide] | > 10000
13 | 0.96 | Cc1cc(-c2cc(Nc3ccc(N4CCN(CCc5ccc(C6CCC(=O)NC6=O)c(F)c5)CC4)cn3)ncn2)ccc1[C@@H](C)NC(=O)c1nc(C(C)(C)C)no1 (stereo partly drawn) [Example 47, 3-(tert-butyl)-N-((1R)-1-(4-(6-((5-(4-(4-(2,6-dioxopiperidin-3-yl)-3-fluorophenethyl)piperazin-1-yl)pyridin-2-yl)amino)pyrimidin-4-yl)-2-methylphenyl)ethyl)-1,2,4-oxadiazole-5-carboxamide] | > 10000
14 | 0.632 | Cc1cc(-c2cc(Nc3ccc(N4CCN(CCc5cccc6c5n(C)c(=O)n6C5CCC(=O)NC5=O)CC4)cn3)ncn2)ccc1[C@@H](C)NC(=O)c1nc(C(C)(C)C)no1 (stereo partly drawn) [Example 50, 3-(tert-butyl)-N-((1R)-1-(4-(6-((5-(4-(2-(1-(2,6-dioxopiperidin-3-yl)-3-methyl-2-oxo-2,3-dihydro-1H-benzo[d]imidazol-4-yl)ethyl)piperazin-1-yl)pyridin-2-yl)amino)pyrimidin-4-yl)-2-methylphenyl)ethyl)-1,2,4-oxadiazole-5-carboxamide] | 920
15 | 0.486 | Cc1cc(-c2cc(Nc3ccc(N4CCN(CCc5ccc6c(c5)oc(=O)n6C5CCC(=O)NC5=O)CC4)cn3)ncn2)ccc1[C@@H](C)NC(=O)c1nc(C(C)(C)C)no1 (stereo partly drawn) [Example 49, 3-(tert-butyl)-N-((1R)-1-(4-(6-((5-(4-(2-(3-(2,6-dioxopiperidin-3-yl)-2-oxo-2,3-dihydrobenzo[d]oxazol-6-yl)ethyl)piperazin-1-yl)pyridin-2-yl)amino)pyrimidin-4-yl)-2-methylphenyl)ethyl)-1,2,4-oxadiazole-5-carboxamide] | > 10000
16 | 0.382 | Cc1cc(-c2cc(Nc3ccc(N4CCN(C5CN(c6ccc(N7CCC(=O)NC7=O)cc6)C5)CC4)cn3)ncn2)ccc1[C@@H](C)NC(=O)c1nc(C(C)(C)C)no1 [Example 40, (R)-3-(tert-butyl)-N-(1-(4-(6-((5-(4-(1-(4-(2,4-dioxotetrahydropyrimidin-1(2H)-yl)phenyl)azetidin-3-yl)piperazin-1-yl)pyridin-2-yl)amino)pyrimidin-4-yl)-2-methylphenyl)ethyl)-1,2,4-oxadiazole-5-carboxamide] | > 10000
17 | 0.209 | Cc1cc(-c2cc(Nc3ccc(N4CCN(C5CN(C6CN(c7ccc(N8CCC(=O)NC8=O)cc7)C6)C5)CC4)cn3)ncn2)ccc1[C@@H](C)NC(=O)c1nc(C(C)(C)C)no1 [Example 39, (R)-3-(tert-butyl)-N-(1-(4-(6-((5-(4-(1′-(4-(2,4-dioxotetrahydropyrimidin-1(2H)-yl)phenyl)-[1,3′-biazetidin]-3-yl)piperazin-1-yl)pyridin-2-yl)amino)pyrimidin-4-yl)-2-methylphenyl)ethyl)-1,2,4-oxadiazole-5-carboxamide] | > 10000
